Assay results: patent US20250108139A1, “PEPTIDE UREA DERIVATIVE, PHARMACEUTICAL COMPOSITION CONTAINING PEPTIDE UREA DERIVATIVE, AND APPLICATION OF PEPTIDE UREA DERIVATIVE” (BIVISION PHARMACEUTICALS, INC, priority 2022, published 2025)

How the values were obtained:
PSMA protein = PSMA protein (Homo sapiens (Human), UniProt Q04609); assay: Affinity of DB compounds to PSMA protein using Biacore (Effect Example 3); conditions: Biacore 8K, 15° C., 1:1 binding model; pKD=−Log KD
Description: The affinity of DB compounds to PSMA protein was tested using the Biacore 8K (Cytiva) instrument to detect ligand binding to PSMA protein (Sino Biological). PSMA protein was captured on an SA chip. Before fixing the ligand (flow paths 1 and 2, flow rate of 10 μL/min), PSMA protein (10 μg/mL, flow rate of 5 μL/min, injection time of 600 s) was fixed on flow path 2 using a flow buffer. The sensor surface was adjusted by continuously injecting 1 M NaCl three times in 50 mM NaOH. After each ligand injection, additional cleaning was performed using isopropanol in 1 M NaCl and 50 mM NaOH (flow paths 1 and 2, flow rate of 10 μL/min, injection time of 60 s).
All compounds were dissolved in 100% DMSO and diluted to 10 mM, then further diluted to the appropriate highest concentration in the analysis buffer (PBS, PH 7.4, 1 mM TCEP ([…]), 0.05% P20, 2% DMSO). The analysis was conducted under the following conditions: 15° C. analysis temperature; analysis steps=all set to LMW kinetics; cycle type=single cycle (90 s contact time, 1800 s dissociation time, 30 μL/min flow rate, flow paths 1 and 2); detection in flow=path 2-1. Data evaluation was performed using Biacore Insight Evaluation Software, fitting the data to a 1:1 binding model.
Biacore results are shown in Table 5: pKD=−Log KD, wherein KD is the binding affinity of the compound to PSMA protein measured by Biacore. It is expressed by Kd (M)=Kd (1/s)/Ka (1/Ms). A indicates pKD>8; B indicates 7<pKD<8; C indicates 6<pKD<7; D indicates pKD<6.

[1] = system: PSMA-positive 22rv1 tumor-bearing mouse; assay: 177Lu labeling and animal biodistribution experiment, gamma counter; format: in vivo; conditions: 177Lu-labeled compound, 24 h after tail vein injection, n = 2
Description: Distribution in PSMA-positive tumor-bearing mouse tissues: Tumor-bearing animals (purchased from Shanghai Alamo Pharmaceutical Technology Co., Ltd.) were subcutaneously inoculated with 3×10^6 22rv1 cells (in 50% Matrigel, Corning) into the right shoulder region of 6-9 week old (Balb/c Nude) mouse. Once the tumors had grown to an appropriate size, ^177Lu-radiolabeled DB compounds were injected into the mouse via the tail vein (approximately 1.85 MBq-3.7 MBq/mouse, specific activity: 22423.82 Kbq/μg). After administration, the animals were euthanized using carbon dioxide inhalation at 24 hours. The blood and organs (blood, liver, kidney, muscle, tumor) were collected.
Blood was collected through the abdominal aorta and 100 μL was immediately quantified into designated centrifuge tubes (weighed). After collection, the organs were washed twice with deionized water, dried, placed in pre-weighed tubes, and weighed again to calculate the sample weight. Samples were measured on the day of collection. All blood and tissue samples were measured for radioactivity using a gamma counter. The results are shown in FIGS. 3, 4, 5, 6, 7, and Table 6.

[2] = biological target: PSMA-expressing cells (22Rv1) (Homo sapiens (Human), UniProt Q04609); assay: Competitive binding against radiolabeled PSMA-617 ligand on 22Rv1 cells; conditions: unlabeled compound vs radiolabeled PSMA-617 ligand, on ice 2 hours
Description: (1) 22Rv1 cells in the logarithmic growth phase were prepared into a cell suspension, and the cell density was adjusted to 1×10^4 cells/mL. 1 mL of the cell suspension was seeded into each well of a 24-well cell culture plate. The cells were cultured overnight in a 37° C. incubator.
(2) The cell culture medium was aspirated, and the cells were washed once with PBS. Then, 975 μL of additive-free medium was added.
(3) To each well, 25 μL of a fixed concentration of radiolabeled PSMA-617 ligand (final concentration in the medium: 2 μCi/mL) and different concentrations (final concentrations in the medium: 1000 ng/ml, 100 ng/mL, 10 ng/mL, 1 ng/mL, 0.1 ng/mL, 0.01 ng/mL, 0.001 ng/mL, 0 ng/ml) of the unlabeled test blocking compounds DB-18, DB-19, DB-13, E-3 were added.
(4) The cells were incubated on ice for 2 hours.
(5) The cells were washed three times with ice-cold PBS.
(6) The cells were lysed with 0.5 mL of 1 M sodium hydroxide, and washed twice with 0.5 mL PBS. The sodium hydroxide (0.5 mL) and PBS (0.5 mL×2) solutions were collected for uptake counting.

LNCaP cells = assay: Cell killing, CCK8 assay; format: cell-based; conditions: 177Lu-labeled, 45 μCi/mL, CCK8 on fifth day
Description: A. LNCaP cells in the logarithmic growth phase were prepared into a cell suspension, and the cell density was adjusted to 1×10^5 cells/mL. 1 mL of the cell suspension was seeded into each well of a 24-well cell culture plate. The cells were cultured for 24 hours in a 37° C. incubator.
B. The ^177Lu-labeled compound (^177Lu-E-3) was prepared in serum-containing culture medium at radioactive concentrations of 5, 15, and 45 μCi/mL (the unlabeled E-3 was prepared at a corresponding precursor concentration for 45 μCi/mL).
C. The experimental groups were treated with 1 mL/well of the above ^177Lu-labeled compound solutions, while the control group was treated with 1 mL/well of serum-containing culture medium.
D. The cells were cultured in the incubator for 24 hours, after which the medium was entirely replaced with fresh culture medium.
E. On the fifth day, cell proliferation in each group was monitored using an enhanced CCK8 assay kit.

[3] = Determination of Log P (n-octanol/water partition); format: physicochemical; conditions: 177Lu-labeled compound, mean of three tubes
Description: Three EP tubes were prepared, each containing 0.1 mL of saturated n-octanol and 80 μL of ultrapure water. Then, 20 μL (approximately 1 MBq) of the ^177Lu-labeled DB-13, DB-18, and DB-19 compound solutions were added to the respective tubes. After shaking evenly, the tubes were centrifuged at room temperature (2000 r/min, 5 minutes, centrifugation radius of 10 cm). From each tube, 100 μL was taken from both the lipid layer and the aqueous layer, and the radioactivity counts per minute for both phases were measured. The Log P values were calculated, and their mean values were taken as the final result.

albumin in rat plasma = assay: Plasma protein binding (PPB) test by ultrafiltration; format: in vitro ADME; conditions: 177Lu-labeled compound
Description: The labeled compounds ^177Lu-E-3, 177Lu-DB-13, 177Lu-DB-18, and ^177Lu-DB-19 (1 μCi) were prepared in a reaction solution by adding 50 μL of PBS to achieve a concentration of 20 μCi/mL. 50 μL of the 20 μCi/mL reaction solution was added to 200 μL of plasma, repeated for 3 tubes. The mixture was mixed well and incubated at room temperature for 10 minutes, then added to ultrafiltration tubes and centrifuged at 13000 rpm for 45 minutes. Following this, 50 μL of normal saline was added and the samples were centrifuged again for 15 minutes. The upper chamber and the filtrate were respectively counted for radioactivity.
PPB=[(upper chamber counts−background counts]/(filtrate counts+upper chamber counts−2*background counts)]*100%.

Chain of PSMA-expressing cells (22Rv1) (Q04609 whole entry): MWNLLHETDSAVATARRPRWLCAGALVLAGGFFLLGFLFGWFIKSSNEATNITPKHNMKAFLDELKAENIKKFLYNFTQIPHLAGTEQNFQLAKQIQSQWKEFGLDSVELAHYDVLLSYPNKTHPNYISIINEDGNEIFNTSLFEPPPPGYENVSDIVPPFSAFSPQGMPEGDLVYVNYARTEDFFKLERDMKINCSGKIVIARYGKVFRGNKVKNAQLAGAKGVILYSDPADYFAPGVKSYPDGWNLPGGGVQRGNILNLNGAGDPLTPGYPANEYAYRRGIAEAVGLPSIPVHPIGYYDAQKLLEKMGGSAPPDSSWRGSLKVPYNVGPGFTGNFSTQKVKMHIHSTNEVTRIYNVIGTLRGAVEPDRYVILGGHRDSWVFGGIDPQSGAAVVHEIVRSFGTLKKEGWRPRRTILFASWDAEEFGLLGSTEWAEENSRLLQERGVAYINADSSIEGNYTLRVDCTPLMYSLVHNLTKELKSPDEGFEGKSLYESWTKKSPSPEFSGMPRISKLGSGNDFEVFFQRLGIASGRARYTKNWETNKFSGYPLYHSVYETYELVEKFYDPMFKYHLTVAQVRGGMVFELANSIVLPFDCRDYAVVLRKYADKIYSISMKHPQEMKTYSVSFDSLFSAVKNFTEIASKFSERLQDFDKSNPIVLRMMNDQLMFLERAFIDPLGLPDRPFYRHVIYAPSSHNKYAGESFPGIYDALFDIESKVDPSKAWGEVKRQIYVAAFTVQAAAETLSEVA
Chain of PSMA protein (Q04609 whole entry): as above

Kd (PSMA protein): < 10 nM
Blood uptake [1]: 0.025 % ID/g
Kidney uptake [1]: 2.890 % ID/g
Liver uptake [1]: 0.115 % ID/g
Muscle uptake [1]: 0.060 % ID/g
Tumor uptake [1]: 16.195 % ID/g
IC50 [2]: 1.83 nM
logP [3]: -1.96
plasma protein binding ratio (albumin binding ratio) (albumin in rat plasma): 90.84%
Compound: O=C(O)CC[C@H](NC(=O)NC(CCCCNC(=O)[C@H](Cc1ccc2ccccc2c1)NC(=O)[C@H]1CC[C@H](NC(=O)CCC(=O)NCC(=O)N2CN(C(=O)CNC(=O)CCC(=O)N[C@H]3CC[C@H](C(=O)N[C@@H](Cc4ccc5ccccc5c4)C(=O)NCCCC[C@H](NC(=O)N[C@@H](CCC(=O)O)C(=O)O)C(=O)O)CC3)CN(C(=O)CNC(=O)CN3CCN(CC(=O)O)CCN(CC(=O)O)CCN(CC(=O)O)CC3)C2)CC1)C(=O)O)C(=O)O (stereo partly shown) [DB-13]
cell-killing rate (LNCaP cells): 67%
